Measurements from PubChem BioAssay AID1845194 (Molecular Pharmacology Branch, DTP, NCI, 2023).
pIC50: −log10 of the molar value.

Tested on: 287954-098-R-J1 tumor spheroid viability
Assay: Anticancer human tumor 287954-098-R-J1 patient-derived Ewing sarcoma cell line growth inhibition
Conditions: spheroids with HUVEC and MSC; for pIC50: curve of first compound; for viability, T/C: stronger effect = lower value
Outline: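 Complex spheroids of malignant cells with endothelial cells and mesenchymal stem cells; agents alone or combined, from near clinical Cmax (or 10 microM if unknown) down in half-log steps, 0.25% DMSO final.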

[1] = second compound 0.003 µM, first compound 0.0316 µM
[2] = second compound 0.003 µM, first compound 0.1 µM
[3] = second compound 0.003 µM, first compound 0.316 µM
[4] = second compound 0.003 µM, first compound 1 µM
[5] = second compound 0.003 µM, first compound 3.16 µM
[6] = second compound 0.003 µM, first compound 10 µM
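Further: spheroids exposed to compound for 7 days before viability readout.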
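Wherever viability, T/C is given: luminescent signal taken as surrogate of viable cell content; 100% = DMSO vehicle control viability and lower means growth inhibition.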

COc1cc(C)[nH]c(=O)c1CN1CCc2c(Cl)cc(C(OC)C3COC3)c(Cl)c2C1=O (stereo not given) + COc1cc2c(cc1O)CCNC21CSC2c3c(OC(C)=O)c(C)c4c(c3C(COC1=O)N1C(O)C3Cc5cc(C)c(OC)c(O)c5C(C21)N3C)OCO4
pIC50 (second compound 30 pM): < 5.00
pIC50 (second compound 94.9 pM): < 5.00
pIC50 (second compound 0.0003 µM): < 5.00
pIC50 (second compound 0.000949 µM): > 7.50
pIC50 (second compound 0.003 µM): > 7.50
viability, T/C (second compound 30 pM, first compound 0.0316 µM): 96.5%
viability, T/C (second compound 30 pM, first compound 0.1 µM): 94.2%
viability, T/C (second compound 30 pM, first compound 0.316 µM): 87.3%
viability, T/C (second compound 30 pM, first compound 1 µM): 92.8%
viability, T/C (second compound 30 pM, first compound 3.16 µM): 104%
viability, T/C (second compound 30 pM, first compound 10 µM): 89.9%
viability, T/C (second compound 94.9 pM, first compound 0.0316 µM): 108%
viability, T/C (second compound 94.9 pM, first compound 0.1 µM): 101%
viability, T/C (second compound 94.9 pM, first compound 0.316 µM): 94.5%
viability, T/C (second compound 94.9 pM, first compound 1 µM): 94.1%
viability, T/C (second compound 94.9 pM, first compound 3.16 µM): 91.3%
viability, T/C (second compound 94.9 pM, first compound 10 µM): 94.1%
viability, T/C (second compound 0.0003 µM, first compound 0.0316 µM): 104%
viability, T/C (second compound 0.0003 µM, first compound 0.1 µM): 102%
viability, T/C (second compound 0.0003 µM, first compound 0.316 µM): 92.1%
viability, T/C (second compound 0.0003 µM, first compound 1 µM): 95.5%
viability, T/C (second compound 0.0003 µM, first compound 3.16 µM): 90.9%
viability, T/C (second compound 0.0003 µM, first compound 10 µM): 87.9%
viability, T/C (second compound 0.000949 µM, first compound 0.0316 µM): 0.52%
viability, T/C (second compound 0.000949 µM, first compound 0.1 µM): 0.35%
viability, T/C (second compound 0.000949 µM, first compound 0.316 µM): 0.34%
viability, T/C (second compound 0.000949 µM, first compound 1 µM): 0.36%
viability, T/C (second compound 0.000949 µM, first compound 3.16 µM): 0.25%
viability, T/C (second compound 0.000949 µM, first compound 10 µM): 0.33%
viability, T/C [1]: 0.25%
viability, T/C [2]: 0.27%
viability, T/C [3]: 0.22%
viability, T/C [4]: 0.16%
viability, T/C [5]: 0.16%
viability, T/C [6]: 0.25%

CC(C)n1c(=O)n(C)c2cnc3cc(F)c(-c4ccc(OCCCN5CCCCC5)nc4)cc3c21 + CC[C@@]1(O)C(=O)OCc2c1cc1n(c2=O)Cc2cc3c(CN(C)C)c(O)ccc3nc2-1
pIC50 (second compound 0.003 µM): > 7.50
pIC50 (second compound 0.00949 µM): > 7.50
pIC50 (second compound 0.03 µM): > 7.50
pIC50 (second compound 0.0949 µM): > 7.50
pIC50 (second compound 0.3 µM): > 7.50
viability, T/C [1]: 24.4%
viability, T/C [2]: 25.2%
viability, T/C [3]: 14.1%
viability, T/C [4]: 18%
viability, T/C [5]: 18.6%
viability, T/C [6]: 0.6%
viability, T/C (second compound 0.00949 µM, first compound 0.0316 µM): 1.98%
viability, T/C (second compound 0.00949 µM, first compound 0.1 µM): 1.84%
viability, T/C (second compound 0.00949 µM, first compound 0.316 µM): 1.79%
viability, T/C (second compound 0.00949 µM, first compound 1 µM): 1.85%
viability, T/C (second compound 0.00949 µM, first compound 3.16 µM): 1.45%
viability, T/C (second compound 0.00949 µM, first compound 10 µM): 0.25%
viability, T/C (second compound 0.03 µM, first compound 0.0316 µM): 1.57%
viability, T/C (second compound 0.03 µM, first compound 0.1 µM): 1.36%
viability, T/C (second compound 0.03 µM, first compound 0.316 µM): 1.48%
viability, T/C (second compound 0.03 µM, first compound 1 µM): 1.56%
viability, T/C (second compound 0.03 µM, first compound 3.16 µM): 1.35%
viability, T/C (second compound 0.03 µM, first compound 10 µM): 0.27%
viability, T/C (second compound 0.0949 µM, first compound 0.0316 µM): 1.39%
viability, T/C (second compound 0.0949 µM, first compound 0.1 µM): 1.29%
viability, T/C (second compound 0.0949 µM, first compound 0.316 µM): 1.62%
viability, T/C (second compound 0.0949 µM, first compound 1 µM): 1.24%
viability, T/C (second compound 0.0949 µM, first compound 3.16 µM): 1.02%
viability, T/C (second compound 0.0949 µM, first compound 10 µM): 0.43%
viability, T/C (second compound 0.3 µM, first compound 0.0316 µM): 1.39%
viability, T/C (second compound 0.3 µM, first compound 0.1 µM): 1.68%
viability, T/C (second compound 0.3 µM, first compound 0.316 µM): 1.34%
viability, T/C (second compound 0.3 µM, first compound 1 µM): 1.48%
viability, T/C (second compound 0.3 µM, first compound 3.16 µM): 1.35%
viability, T/C (second compound 0.3 µM, first compound 10 µM): 0.58%

COc1ccc([C@@H](O)c2cc(-c3ncnc4cc(N5CCOCC5)ccc34)c(F)cc2Cl)nn1 + Cn1nnc2c(C(N)=O)ncn2c1=O
pIC50 (second compound 1 µM): < 5.00
pIC50 (second compound 3.16 µM): < 5.00
pIC50 (second compound 10 µM): < 5.00
pIC50 (second compound 31.6 µM): < 5.00
pIC50 (second compound 100 µM): < 5.00
viability, T/C (second compound 1 µM, first compound 0.0316 µM): 107%
viability, T/C (second compound 1 µM, first compound 0.1 µM): 109%
viability, T/C (second compound 1 µM, first compound 0.316 µM): 109%
viability, T/C (second compound 1 µM, first compound 1 µM): 112%
viability, T/C (second compound 1 µM, first compound 3.16 µM): 101%
viability, T/C (second compound 1 µM, first compound 10 µM): 92.8%
viability, T/C (second compound 3.16 µM, first compound 0.0316 µM): 105%
viability, T/C (second compound 3.16 µM, first compound 0.1 µM): 105%
viability, T/C (second compound 3.16 µM, first compound 0.316 µM): 104%
viability, T/C (second compound 3.16 µM, first compound 1 µM): 107%
viability, T/C (second compound 3.16 µM, first compound 3.16 µM): 101%
viability, T/C (second compound 3.16 µM, first compound 10 µM): 94.5%
viability, T/C (second compound 10 µM, first compound 0.0316 µM): 107%
viability, T/C (second compound 10 µM, first compound 0.1 µM): 106%
viability, T/C (second compound 10 µM, first compound 0.316 µM): 101%
viability, T/C (second compound 10 µM, first compound 1 µM): 105%
viability, T/C (second compound 10 µM, first compound 3.16 µM): 105%
viability, T/C (second compound 10 µM, first compound 10 µM): 101%
viability, T/C (second compound 31.6 µM, first compound 0.0316 µM): 103%
viability, T/C (second compound 31.6 µM, first compound 0.1 µM): 111%
viability, T/C (second compound 31.6 µM, first compound 0.316 µM): 105%
viability, T/C (second compound 31.6 µM, first compound 1 µM): 112%
viability, T/C (second compound 31.6 µM, first compound 3.16 µM): 110%
viability, T/C (second compound 31.6 µM, first compound 10 µM): 97%
viability, T/C (second compound 100 µM, first compound 0.0316 µM): 102%
viability, T/C (second compound 100 µM, first compound 0.1 µM): 110%
viability, T/C (second compound 100 µM, first compound 0.316 µM): 104%
viability, T/C (second compound 100 µM, first compound 1 µM): 109%
viability, T/C (second compound 100 µM, first compound 3.16 µM): 96.9%
viability, T/C (second compound 100 µM, first compound 10 µM): 84%
